Bridges are numbered along the chain shown (N, C = ends). BDB = bisdiazonium-benzidine, coupling agent to KLH
Key:
hIL-6 = hIL-6 (Homo sapiens, UniProt P05231); test: ELISA cross-reactivity of sera from OF1 mice immunized with mIL-6-derived peptides, plates covered with human IL-6; type: in vivo; details: D54 sera diluted 1/500, plates covered with human IL-6
From the text: Six peptides derived from murine IL-6 were chemically synthesized and coupled to a carrier protein, KLH (Keyhole Limpet Hemocyanin), five using the coupling agent bisdiazonium-benzidine (BDB) and one with glutaraldehyde. These peptides were then cyclized by the formation of disulfide bonds between cysteines (added or already present).
For each peptide, Oncins France 1 mice (OF1, Charles River Laboratories, L'Arbresle, France) free from specific pathogenic organisms were immunized by intra-muscular route with 100 μg of peptides derived from murine IL-6 mP1, mP2, mP3, mP4, mP5, and mP6 (see Table 1) in complete Freund's adjuvant (CFA) at the start of the experiment (D0) (n=4 per peptide).
Incomplete Freund's adjuvant (IFA) boosters are then given every 15 days, on D15, D30 and D45. The sera from mice on D54 are tested by ELISA with a 1/500th dilution of the serums on plates covered with murine IL-6 or human IL-6 in order to evaluate their cross-reactivity.

murine IL-6 = target: T1, murine IL-6 (Mus musculus, UniProt P08505); test: Murine IL-6 neutralization test on murine B9 hybridomas with purified IgGs from immunized rabbits; type: cell-based; details: purified IgGs from rabbits immunized with the peptide; B9 hybridoma proliferation, XTT
T1 sequence (P08505 25-211): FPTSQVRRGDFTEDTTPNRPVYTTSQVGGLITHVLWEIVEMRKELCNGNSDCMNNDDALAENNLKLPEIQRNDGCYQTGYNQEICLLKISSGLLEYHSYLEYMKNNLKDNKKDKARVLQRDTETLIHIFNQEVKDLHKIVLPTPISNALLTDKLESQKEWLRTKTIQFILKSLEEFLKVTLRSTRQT
Description: The neutralizing ability of purified IgGs based on serum from rabbits immunized with the peptides mP1, mP2, mP3, mP4, mP5 and mP6 respectively, was tested in a murine IL-6 neutralization test. This test is based on the fact that murine B9 hybridomas proliferate in a dose-dependent manner in response to murine IL-6 (Brakenhoff et al. (1987) J. Immunol. 139:4116-21).
Plating (D0): seed a flat-bottom 96-well plate, treated for cell culture with 5000 cells per well in 50 μL of neutralization medium. (RPMI 1640 without phenol red, 5% v/v Foetal Calf Serum (FCS), 2 mM L-Glutamine, 100 U/mL Penicillin/Streptomycin, […] of β-Mercaptoethanol)
In parallel a so-called “pre-incubation” plate is produced with the desired concentration of murine IL-6, samples and commercial anti-mIL-6 antibodies used as positive control, all in a final volume of 100 μL of neutralization medium.
The pre-incubation plate is left at 37° C. for 2 hours. 50 μL per well is then transferred to the corresponding wells of the plate containing the cells, then the latter is incubated with 5% CO2 at 37° C. for 96 hours.
Development (D4): Add 50 μL of a solution of XTT (for 2,3-bis-(2-methoxy-4-nitro-5-sulfophenyl)-2H-tetrazolium-5-carboxanilide)—0.5% electron coupling reagent to each well. Leave to incubate at 37° C. for 7 hours. Reading of the optical density on a spectrophotometer set at 450 nm.

C57BL/6 mice = test: Murine model of chronic colitis induced by DSS after vaccination; type: in vivo
From the text: Chronic colitis induced by Dextran Sodium Sulfate (DSS) is a well-known model of chronic inflammatory disease reproducing the main characteristics of the human diseases (Alex et al. (2009) Inflamm. Bowel Dis. 15:341-352).
Briefly, groups of 6 C57BL/6 mice (Charles River Laboratories, L'Arbresle, France) were formed. The mice were immunized 4 times (once with CFA and three times with IFA) every 15 days with different vaccine preparations. The mice were respectively immunized with PBS (DSS/PBS group), 50 μg per mouse of KLH (DSS/KLH group), and 100 μg per mouse of peptide mP1, mP2, mP3, mP4, mP5 and mP6 coupled with KLH (DSS/mIL-6 peptide group). A control H2O group was also included. Four days after the first booster, colitis was induced by absorption of Dextran Sodium Sulfate (DSS) in water (2%) over 7 days followed by 7 days of water. Three DSS/water cycles were thus carried out, after which the mice received water until the end of the protocol. The clinical signs of the disease appear approximately on the fifth day after the start of treatment with DSS (D26 of the protocol). The development of the disease is measured from the start of the first DSS cycle up to the end of the protocol by a disease activity index (DAI) including weight loss, the presence of blood in the stools and the texture of the stools. The clinical scores are determined as follows: for the texture of the stools a score of 0 (hard stools) to 4 (diarrhoea), for the presence of blood in the stools a score of 0 (absence) to 4 (macroscopic blood), and weight loss a score of 0 (<1%) to 4 (>20%). Each mouse is thus assigned a clinical score with a maximum score of 12.
Then, on D67, the mice are killed by cervical dislocation. The histological sections from colon distal biopsies are scored blind, according to the severity of the inflammation (0: absence, 1: slight, 2: moderate, 3: severe), the extent of the inflammation (0: absence, 1: mucosal, 2: mucosal and sub-mucosal, 3: transmural), crypt damage (0: absence, 1: one-third damaged, 2: ⅔ damaged, 3: only the surface of the epithelium intact, 4: total destruction of the crypts and epithelium). Each mouse is thus assigned a histological score with a maximum score of 10.

mIL-6 = target: T2, mIL-6 (Mus musculus, UniProt P08505); test: ELISA of antibody production against mIL-6 in DBA/2 mice immunized with mP2; type: in vivo; details: 100 μg cyclized mP2 coupled to KLH, day 54 sera, FIG. 9
T2 sequence (P08505 25-211): T1 sequence (P08505 25-211)
Description: (§1) Briefly, three groups of DBA/2 mice (Janvier, France) immunized intramuscularly four times (once in complete Freund's adjuvant (CFA), and three times in incomplete Freund's adjuvant (IFA)) every 15 days with different vaccine preparations: • 8 mice were immunized with 100 μg of the above-described cyclized mP2 peptide coupled to KLH (mP2-Bleo group) and were injected subcutaneously in the back with bleomycin • 6 mice were immunized with 100 μg of mP2 (mP2-Nacl group) and were injected subcutaneously in the back with NaCl (Negative control group) • 8 mice were group immunized with 200 μg of KLH alone (KLH-Bleo group) and were injected subcutaneously in the back with bleomycin. (Positive control group)
(§2) At day 54, the mice were killed. Sera samples were collected and the antibody production against mIL-6 was quantified by ELISA. Furthermore, skin biopsies were performed to evaluate the OH-proline production, indicative of collagen production, and histological sections from the back were also performed to evaluate dermal thickness.

DBA/2 mice = test: Murine model of bleomycin-induced systemic sclerosis after vaccination; type: in vivo; details: for skin fibrosis (OH-proline content of skin biopsies): mP2-immunized, FIG. 10
From the text: The murine model of bleomycin-induced systemic sclerosis is a well-known model of chronic inflammatory disease with main features being dermal thickness together with skin and pulmonary fibrosis due to excessive collagen production (Adamson & Bowden (1974) Am. J. Pathol. 77:185-197)
as §1
The inventors also used an additional control group composed of mice injected intraperitoneally with 100 μL (1 mg/mouse) of murine monoclonal anti IL-6 receptor antibody once a week (n=6).
The subcutaneous injections of 100 μL of bleomycin (0.5 mg/mL) were performed three days after the third boost and then every other day during three weeks in order to induce systemic sclerosis.
as §2
The collagen content was measured in the skin biopsy from each mouse by assaying hydroxyproline (OH-proline) content. OH-proline represents about 13% of collagen amino acids and is measured to evaluate collagen production. […] The absorbance is read at 560 nm.
Dermal thickness from histological sections was then measured in a blind way by two independent experts.

Sequence of hIL-6 (P05231 30-212): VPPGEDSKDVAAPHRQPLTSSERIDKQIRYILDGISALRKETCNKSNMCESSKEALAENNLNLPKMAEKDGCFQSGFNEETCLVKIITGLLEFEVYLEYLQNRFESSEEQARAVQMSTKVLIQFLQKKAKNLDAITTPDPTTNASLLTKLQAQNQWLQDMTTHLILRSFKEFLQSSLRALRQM

development of antibodies against mIL-6 (ELISA) (mIL-6): developed antibodies against mIL-6
Substance: Acetyl+C76MNNDDALAENNLKLPE92C-Y-BDB (Ac-CMNNDDALAENNLKLPECY-{BDB}; disulfide 1-18 (inferred)) [mP2, peptide derived from mIL-6 region 76-92]
cross-reactivity with the human cytokine (ELISA) (hIL-6): apart from the antibodies directed against the peptide mP2
neutralization of the biological activity of murine IL-6 (murine IL-6): neutralize the biological activity of murine IL-6 in a dose-dependent manner
histological colitis score (C57BL/6 mice; D67 colon distal biopsies, compared with control mice treated with PBS or KLH alone, FIG. 3): significantly reduced histological score
disease activity index (DAI) (C57BL/6 mice; DSS-treated C57BL/6 mice, 100 μg peptide coupled with KLH, compared with the control groups, FIG. 2): significantly reduced disease activity index
reduction of the length of the colon (C57BL/6 mice; DSS-treated C57BL/6 mice, compared with control mice, FIG. 4): significantly less severe reduction of the colon
dermal thickening (histological sections) (DBA/2 mice; bleomycin model, versus mice immunized with KLH only, identical with anti mIL-6 receptor group, FIG. 11): lower dermal thickening
skin fibrosis (OH-proline content of skin biopsies) (DBA/2 mice; injected subcutaneously with NaCl (negative control group)): did not develop skin fibrosis
skin fibrosis (OH-proline content of skin biopsies) (DBA/2 mice; injected subcutaneously with bleomycin, same efficacy as anti IL-6 receptor antibody group): protected from the development of fibrosis

— patent US20140322161A1, “ANTI-IL-6 VACCINE COMPOSITION” (PEPTINOV SAS, priority 2011, published 2014)
